Experimental data taken from article PMC11062899, “De novo development of small cyclic peptides that are orally bioavailable” (Nature Chemical Biology, 2023).
Where “and” joins values, the source holds several entries; their conditions need not be identical. Equal values may be shown once. Read-outs that look alike come from different tables or passages of the source.

What was measured:
porcine pepsin = molecular target: T1, porcine pepsin (Sus scrofa, UniProt P00791); experiment: Peptide stability in simulated gastric fluid (SGF); assay type: in vitro ADME; settings: pig, simulated gi fluid; 8 h, 37 °C, pH 1.2; read-out: Proteolytic stability: SGF (8 h) % remaining
T1 construct: 0.32 g of porcine pepsin (Sigma-Aldrich, P7125) was dissolved under gentle agitation; purchased Sigma-Aldrich P7125
T1 sequence (P00791 60-385): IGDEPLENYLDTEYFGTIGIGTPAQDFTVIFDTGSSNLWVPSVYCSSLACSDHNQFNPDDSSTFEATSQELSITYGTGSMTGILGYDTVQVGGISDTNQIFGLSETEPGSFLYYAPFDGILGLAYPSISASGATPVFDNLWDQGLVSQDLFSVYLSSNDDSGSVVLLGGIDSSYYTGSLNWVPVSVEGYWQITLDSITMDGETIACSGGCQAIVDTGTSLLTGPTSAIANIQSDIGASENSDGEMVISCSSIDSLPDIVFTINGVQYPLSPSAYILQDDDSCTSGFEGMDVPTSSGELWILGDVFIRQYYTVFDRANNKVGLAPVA
In short: (§1)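 Peptide from a 1 mM DMSO stock was added to fluid pre-warmed at 37 °C. SGF was pH 1.2 NaCl with porcine pepsin (0.32 g per 100 ml), and SIF was pH 6.8 potassium phosphate with porcine pancreatin (1 g per 100 ml). Supernatant peptide was quantified by LC–MS, with residual expressed as T1/T0.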

human α-thrombin = human α-thrombin (Homo sapiens, UniProt P00734); experiment: Protease inhibition, Ki for human α-thrombin (fluorogenic substrate Z-Gly-Gly-Arg-AMC); assay type: biochemical; settings: for slope normalized to DMSO, human alpha thrombin inhibition: replicates R1-R3
In short: (§2)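 Ki values come from Cheng–Prusoff correction of IC50, itself fitted by four-parameter logistic regression of activity versus a no-peptide control. Assays used 2 nM human or 3 nM rat thrombin, 50 μM Z-Gly-Gly-Arg-AMC, 30 min kinetic fluorescence at 25 °C.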

rat α-thrombin = molecular target: T2, rat α-thrombin (Rattus norvegicus, UniProt P18292); experiment: Protease inhibition, Ki for rat α-thrombin (fluorogenic substrate Z-Gly-Gly-Arg-AMC); assay type: biochemical; settings: for slope normalized to DMSO, rat alpha thrombin inhibition: replicates R1-R3
T2 construct: rat α-thrombin (Molecular Innovations) were used at final concentrations of 2 nM and 3 nM; purchased Molecular Innovations
In short: as §2

[1] = Passive artificial membrane permeability (PAMPA);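 for Permeability% Average: top well sample relative to theoretical equilibrium sample by TIC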
[2] = Peptide stability in simulated intestinal fluid (SIF); assay type: in vitro ADME, porcine; settings: pig, simulated gi fluid; 8 h, 37 °C, pH 6.8; read-out: Proteolytic stability: SIF (8 h) % remaining
In short: as §1

remaining at 8 h (porcine pepsin): 96 ± 12% | Ki (human α-thrombin; average of R1-R3, read-out: Ki Average, human alpha thrombin inhibition): 65.1 nM | IC50 (human α-thrombin; individual replicates R1-R3, read-out: IC50, human alpha thrombin inhibition): 94.1 nM and 79.8 nM and 79.7 nM | slope normalized to DMSO, human alpha thrombin inhibition (human α-thrombin; peptide 1.00E+02 uM): 10.4 and 9.8 and 9.9 | slope normalized to DMSO, human alpha thrombin inhibition (human α-thrombin; peptide 1.19E-05 uM): 103.8 and 104.1 and 105.5 | slope normalized to DMSO, human alpha thrombin inhibition (human α-thrombin; peptide 1.22E-02 uM): 87.6 and 86.9 (2×) | slope normalized to DMSO, human alpha thrombin inhibition (human α-thrombin; peptide 1.25E+01 uM): 5.3 and 12.2 and 12.4 | slope normalized to DMSO, human alpha thrombin inhibition (human α-thrombin; peptide 1.53E-03 uM): 101.5 and 101.1 and 102.6 | slope normalized to DMSO, human alpha thrombin inhibition (human α-thrombin; peptide 1.56E+00 uM): 20.2 and 17.9 and 18.1 | slope normalized to DMSO, human alpha thrombin inhibition (human α-thrombin; peptide 1.91E-04 uM): 103.2 and 104.0 and 103.7 | slope normalized to DMSO, human alpha thrombin inhibition (human α-thrombin; peptide 1.95E-01 uM): 45.4 and 43.2 and 43.8 | slope normalized to DMSO, human alpha thrombin inhibition (human α-thrombin; peptide 2.38E-05 uM): 104.8 and 104.2 and 105.6 | slope normalized to DMSO, human alpha thrombin inhibition (human α-thrombin; peptide 2.44E-02 uM): 80.1 and 79.6 and 79.3 | slope normalized to DMSO, human alpha thrombin inhibition (human α-thrombin; peptide 2.50E+01 uM): 11.9 and 11.0 and 10.5 | slope normalized to DMSO, human alpha thrombin inhibition (human α-thrombin; peptide 3.05E-03 uM): 97.6 and 98.1 and 98.6 | slope normalized to DMSO, human alpha thrombin inhibition (human α-thrombin; peptide 3.12E+00 uM): 16.0 and 13.3 and 14.6 | slope normalized to DMSO, human alpha thrombin inhibition (human α-thrombin; peptide 3.81E-04 uM): 102.7 and 102.9 and 102.6 | slope normalized to DMSO, human alpha thrombin inhibition (human α-thrombin; peptide 3.91E-01 uM): 32.0 and 29.5 and 28.9 | slope normalized to DMSO, human alpha thrombin inhibition (human α-thrombin; peptide 4.77E-05 uM): 102.3 and 105.2 and 103.4 | slope normalized to DMSO, human alpha thrombin inhibition (human α-thrombin; peptide 4.88E-02 uM): 66.2 and 64.4 and 64.1 | slope normalized to DMSO, human alpha thrombin inhibition (human α-thrombin; peptide 5.00E+01 uM): 11.3 and 10.4 and 8.0 | slope normalized to DMSO, human alpha thrombin inhibition (human α-thrombin; peptide 6.10E-03 uM): 94.3 and 94.6 and 94.4 | slope normalized to DMSO, human alpha thrombin inhibition (human α-thrombin; peptide 6.25E+00 uM): 14.8 and 13.5 (2×) | slope normalized to DMSO, human alpha thrombin inhibition (human α-thrombin; peptide 7.63E-04 uM): 99.9 and 102.3 and 103.3 | slope normalized to DMSO, human alpha thrombin inhibition (human α-thrombin; peptide 7.81E-01 uM): 26.0 and 24.0 (2×) | slope normalized to DMSO, human alpha thrombin inhibition (human α-thrombin; peptide 9.54E-05 uM): 102.8 and 104.6 and 103.3 | slope normalized to DMSO, human alpha thrombin inhibition (human α-thrombin; peptide 9.77E-02 uM): 53.1 and 52.5 | IC50 (rat α-thrombin; individual replicates R1-R3, read-out: IC50, rat alpha thrombin inhibition): 18.6 nM and 18.8 nM and 18.2 nM | Ki (rat α-thrombin; individual replicates R1-R3, read-out: Ki, rat alpha thrombin inhibition): 10.3 nM and 10.4 nM and 10.1 nM | slope normalized to DMSO, rat alpha thrombin inhibition (rat α-thrombin; peptide 1.00E+02 uM): 8.3 and 7.3 and 7.2 | slope normalized to DMSO, rat alpha thrombin inhibition (rat α-thrombin; peptide 1.19E-05 uM): 99.4 and 100.3 and 100.6 | slope normalized to DMSO, rat alpha thrombin inhibition (rat α-thrombin; peptide 1.22E-02 uM): 60.3 and 60.4 and 59.6 | slope normalized to DMSO, rat alpha thrombin inhibition (rat α-thrombin; peptide 1.25E+01 uM): 5.7 and 8.0 and 8.3 | slope normalized to DMSO, rat alpha thrombin inhibition (rat α-thrombin; peptide 1.53E-03 uM): 88.8 and 87.9 and 87.4 | slope normalized to DMSO, rat alpha thrombin inhibition (rat α-thrombin; peptide 1.56E+00 uM): 10.8 and 10.2 and 9.8 | slope normalized to DMSO, rat alpha thrombin inhibition (rat α-thrombin; peptide 1.91E-04 uM): 94.6 and 95.0 and 96.1 | slope normalized to DMSO, rat alpha thrombin inhibition (rat α-thrombin; peptide 1.95E-01 uM): 21.1 and 20.0 and 19.8 | slope normalized to DMSO, rat alpha thrombin inhibition (rat α-thrombin; peptide 2.38E-05 uM): 96.3 and 97.7 and 98.1 | slope normalized to DMSO, rat alpha thrombin inhibition (rat α-thrombin; peptide 2.44E-02 uM): 48.7 and 49.3 and 48.8 | slope normalized to DMSO, rat alpha thrombin inhibition (rat α-thrombin; peptide 2.50E+01 uM): 12.0 and 7.7 and 6.9 | slope normalized to DMSO, rat alpha thrombin inhibition (rat α-thrombin; peptide 3.05E-03 uM): 80.9 and 81.1 and 81.9 | slope normalized to DMSO, rat alpha thrombin inhibition (rat α-thrombin; peptide 3.12E+00 uM): 9.6 and 9.4 and 8.9 | slope normalized to DMSO, rat alpha thrombin inhibition (rat α-thrombin; peptide 3.81E-04 uM): 92.9 and 94.7 and 94.0 | slope normalized to DMSO, rat alpha thrombin inhibition (rat α-thrombin; peptide 3.91E-01 uM): 15.0 and 14.0 and 13.6 | slope normalized to DMSO, rat alpha thrombin inhibition (rat α-thrombin; peptide 4.77E-05 uM): 95.4 and 96.4 and 96.6 | slope normalized to DMSO, rat alpha thrombin inhibition (rat α-thrombin; peptide 4.88E-02 uM): 33.7 and 33.6 and 33.1 | slope normalized to DMSO, rat alpha thrombin inhibition (rat α-thrombin; peptide 5.00E+01 uM): 7.6 and 7.2 and 7.4 | slope normalized to DMSO, rat alpha thrombin inhibition (rat α-thrombin; peptide 6.10E-03 uM): 72.8 and 73.4 and 73.0 | slope normalized to DMSO, rat alpha thrombin inhibition (rat α-thrombin; peptide 6.25E+00 uM): 10.1 and 8.5 and 8.3 | slope normalized to DMSO, rat alpha thrombin inhibition (rat α-thrombin; peptide 7.63E-04 uM): 91.2 and 92.2 and 91.3 | slope normalized to DMSO, rat alpha thrombin inhibition (rat α-thrombin; peptide 7.81E-01 uM): 13.0 and 11.7 and 11.5 | slope normalized to DMSO, rat alpha thrombin inhibition (rat α-thrombin; peptide 9.54E-05 uM): 95.8 and 95.1 and 95.6 | slope normalized to DMSO, rat alpha thrombin inhibition (rat α-thrombin; peptide 9.77E-02 uM): 26.6 and 25.4 and 25.1 | PAMPA permeability: % permeability ([1]; 50 μM, 12–18 h, acceptor concentration relative to equilibrium): 55 ± 8% | Permeability% (single replicates R1–R3) ([1]; 50 μM, 12 h (Fig. 6d)): 49.41% and 50.43% and 63.83% | Permeability% Average ([1]; 50 μM, 12 h (Fig. 6d)): 54.6% | Papp at 50 μM ([1]; PAMPA, pH 7.4): 7.76 ×10⁻⁶ cm/s | remaining at 8 h [2]: 93 ± 12%
Structure (SMILES): O=C1C[C@H]2CCCN2C(=O)[C@H](Cc2ccccc2)NC(=O)[C@@H](NC(=O)c2ccc(Cl)cc2)CCC=CCCCCN1 (mixture of isomers) [peptide 46]
Ki (human α-thrombin; individual replicates R1-R3, read-out: Ki, human alpha thrombin inhibition): 72.5 nM (2×) and 61.5 nM (2×) and 61.4 nM (2×)
